What was measured:
[1] = target: T1, C-X-C chemokine receptor type 2 (Homo sapiens, UniProt P25025); experiment: Antagonist activity at human recombinant Gal4-VP16 fused-CXCR2 assessed as inhibition of CXCL1-mediated lactamase reporter gene expression after overnight incubation
T1 sequence (P25025 whole entry): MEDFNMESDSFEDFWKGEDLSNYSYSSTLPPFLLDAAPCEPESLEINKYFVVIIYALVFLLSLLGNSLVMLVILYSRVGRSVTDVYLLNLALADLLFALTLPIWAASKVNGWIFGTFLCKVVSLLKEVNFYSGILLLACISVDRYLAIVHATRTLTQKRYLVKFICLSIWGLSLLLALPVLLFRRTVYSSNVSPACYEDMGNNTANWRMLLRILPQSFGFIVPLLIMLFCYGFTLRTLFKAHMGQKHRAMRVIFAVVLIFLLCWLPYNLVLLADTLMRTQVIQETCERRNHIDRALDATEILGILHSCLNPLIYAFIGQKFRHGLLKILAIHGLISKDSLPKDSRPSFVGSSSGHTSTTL

[2] = (§1) AUC (0 to 4 hrs) in C57BL/6 mouse blood at 2 mg/kg, ip by UPLC/MS/MS analysis; assay type: ADME, organism-based; set-up: dose 2 mg/kg, time < 4 hr, route intraperitoneal; settings: C57BL/6, mouse, blood
[3] = system: Brain; experiment: AUC (0 to 4 hrs) in C57BL/6 mouse brain at 2 mg/kg, ip by UPLC/MS/MS analysis; assay type: ADME, organism-based; set-up: dose 2 mg/kg, time < 4 hr, route intraperitoneal; settings: in vivo
[4] = Ratio of drug level in C57BL/6 mouse brain to blood at 2 mg/kg, ip; assay type: ADME, organism-based; settings: for Kp: C57BL/6, mouse, brain/blood; for Ratio: mouse, brain, BLD = below limit of detection
[5] = target: Cytochrome P450 2C19 (Homo sapiens, UniProt P33261); experiment: Inhibition of CYP2C19 (unknown origin); assay type: ADME
Cytochrome P450 2C19, sequence (P33261 whole entry): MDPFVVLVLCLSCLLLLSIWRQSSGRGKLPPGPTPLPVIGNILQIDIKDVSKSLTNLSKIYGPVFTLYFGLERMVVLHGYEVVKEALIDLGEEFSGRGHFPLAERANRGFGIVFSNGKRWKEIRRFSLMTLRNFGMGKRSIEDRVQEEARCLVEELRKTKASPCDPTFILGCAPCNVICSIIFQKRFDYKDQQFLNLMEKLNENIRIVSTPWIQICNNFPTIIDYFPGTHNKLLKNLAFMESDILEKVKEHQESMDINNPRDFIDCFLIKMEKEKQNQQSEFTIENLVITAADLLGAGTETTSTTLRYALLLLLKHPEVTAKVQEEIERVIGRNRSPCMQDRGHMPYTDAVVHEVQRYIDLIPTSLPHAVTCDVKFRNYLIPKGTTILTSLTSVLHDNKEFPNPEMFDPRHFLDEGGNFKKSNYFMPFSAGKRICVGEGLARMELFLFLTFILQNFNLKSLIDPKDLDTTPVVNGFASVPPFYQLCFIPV

[6] = Oral bioavailability in C57BL/6 mouse at 2 mg/kg; assay type: ADME, organism-based; settings: in vivo
[7] = Half life in C57BL/6 mouse at 1 mg/kg, iv; assay type: ADME, organism-based; settings: in vivo
[8] = Stability of the compound assessed as GSH conjugate formation; assay type: physicochemical
[9] = target: T2, Cytochrome P450 1A2 (Homo sapiens, UniProt P05177); experiment: Inhibition of CYP1A2 (unknown origin); assay type: ADME
T2 sequence (P05177 whole entry): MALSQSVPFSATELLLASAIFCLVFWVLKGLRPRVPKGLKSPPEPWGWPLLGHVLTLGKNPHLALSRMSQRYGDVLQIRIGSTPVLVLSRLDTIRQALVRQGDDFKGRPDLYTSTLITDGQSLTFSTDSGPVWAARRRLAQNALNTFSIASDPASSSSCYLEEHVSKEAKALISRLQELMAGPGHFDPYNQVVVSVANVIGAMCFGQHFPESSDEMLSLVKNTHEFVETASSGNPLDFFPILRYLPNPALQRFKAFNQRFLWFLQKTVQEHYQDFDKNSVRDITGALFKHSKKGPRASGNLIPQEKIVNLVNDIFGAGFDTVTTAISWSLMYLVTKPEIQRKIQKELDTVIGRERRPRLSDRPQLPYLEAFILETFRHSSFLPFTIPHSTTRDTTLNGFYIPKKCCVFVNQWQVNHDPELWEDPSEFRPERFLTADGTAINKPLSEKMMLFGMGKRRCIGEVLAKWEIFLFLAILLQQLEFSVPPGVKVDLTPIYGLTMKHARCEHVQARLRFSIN

[10] = target: Cytochrome P450 3A4 (Homo sapiens, UniProt P08684); experiment: Inhibition of CYP3A4 (unknown origin); assay type: ADME
Cytochrome P450 3A4, sequence (P08684 whole entry): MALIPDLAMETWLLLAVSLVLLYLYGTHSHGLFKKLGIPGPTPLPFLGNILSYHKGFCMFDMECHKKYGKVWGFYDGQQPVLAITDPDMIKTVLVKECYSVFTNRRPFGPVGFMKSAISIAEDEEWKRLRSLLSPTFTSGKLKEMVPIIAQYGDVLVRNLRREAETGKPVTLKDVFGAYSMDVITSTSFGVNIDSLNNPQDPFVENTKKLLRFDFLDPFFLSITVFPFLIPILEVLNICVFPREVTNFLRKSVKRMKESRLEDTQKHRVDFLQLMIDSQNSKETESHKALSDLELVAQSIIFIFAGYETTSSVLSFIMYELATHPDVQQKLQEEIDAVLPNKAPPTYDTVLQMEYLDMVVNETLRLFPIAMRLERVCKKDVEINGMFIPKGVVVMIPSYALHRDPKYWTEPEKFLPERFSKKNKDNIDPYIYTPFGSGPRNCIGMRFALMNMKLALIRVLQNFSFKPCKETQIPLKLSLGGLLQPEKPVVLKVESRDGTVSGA

[11] = target: Cytochrome P450 2C9 (Homo sapiens, UniProt P11712)
Cytochrome P450 2C9, sequence (P11712 whole entry): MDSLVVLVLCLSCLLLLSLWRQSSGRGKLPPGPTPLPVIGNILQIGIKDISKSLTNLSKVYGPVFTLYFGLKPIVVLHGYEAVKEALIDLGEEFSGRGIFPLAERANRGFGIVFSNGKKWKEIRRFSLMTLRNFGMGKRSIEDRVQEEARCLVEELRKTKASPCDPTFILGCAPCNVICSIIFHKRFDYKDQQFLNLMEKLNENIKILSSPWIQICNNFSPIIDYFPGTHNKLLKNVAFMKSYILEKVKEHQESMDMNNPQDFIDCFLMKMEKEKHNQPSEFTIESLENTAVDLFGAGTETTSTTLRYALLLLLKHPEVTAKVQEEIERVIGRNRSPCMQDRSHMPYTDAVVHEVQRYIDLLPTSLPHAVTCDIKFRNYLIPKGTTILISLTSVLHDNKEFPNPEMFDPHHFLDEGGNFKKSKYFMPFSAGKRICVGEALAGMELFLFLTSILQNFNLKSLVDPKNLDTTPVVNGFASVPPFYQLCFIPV
Description: Inhibition of CYP2C9 (unknown origin)

[12] = Fraction unbound in human plasma; assay type: ADME, cell-free
[13] = target: Cytochrome P450 2D6 (Homo sapiens, UniProt P10635); experiment: Inhibition of CYP2D6 (unknown origin); assay type: ADME
Cytochrome P450 2D6, sequence (P10635 whole entry): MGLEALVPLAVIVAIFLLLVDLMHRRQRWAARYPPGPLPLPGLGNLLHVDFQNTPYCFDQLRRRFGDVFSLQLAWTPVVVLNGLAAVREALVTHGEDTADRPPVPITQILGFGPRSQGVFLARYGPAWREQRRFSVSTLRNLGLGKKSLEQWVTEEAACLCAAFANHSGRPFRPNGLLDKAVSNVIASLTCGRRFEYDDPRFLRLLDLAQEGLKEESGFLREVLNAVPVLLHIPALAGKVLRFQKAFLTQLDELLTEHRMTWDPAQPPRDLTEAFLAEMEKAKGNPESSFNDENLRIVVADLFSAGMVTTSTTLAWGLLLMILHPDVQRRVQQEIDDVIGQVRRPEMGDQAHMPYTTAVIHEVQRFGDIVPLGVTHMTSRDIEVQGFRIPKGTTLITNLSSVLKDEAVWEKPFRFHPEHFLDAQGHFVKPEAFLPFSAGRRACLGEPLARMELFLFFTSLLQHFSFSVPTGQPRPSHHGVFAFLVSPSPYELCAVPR

[14] = Clearance in C57BL/6 mouse blood at 1 mg/kg, iv; assay type: ADME, organism-based
[15] = Volume of distribution at steady state in C57BL/6 mouse at 1 mg/kg, iv; assay type: ADME, organism-based; settings: in vivo, read-out: Vdss
[16] = system: Mus musculus; experiment: Dose normalized AUC (0 to infinity) in C57BL/6 mouse at 2 mg/kg, po; assay type: ADME, organism-based; settings: in vivo
[17] = Cmax in C57BL/6 mouse at 2 mg/kg, po; assay type: ADME, organism-based; set-up: dose 2 mg/kg, route oral; settings: in vivo
[18] = system: Blood; experiment: as §1; assay type: ADME, organism-based; set-up: dose 2 mg/kg, time < 4 hr, route intraperitoneal; settings: mouse, in vivo, 4 h, BLD = below limit of detection

SMILES	IC50 [1]	AUC(0-t) at 4 h [2]	AUC [3]	Kp [4]	other results
O=C(Nc1ccc(Cl)c(S(=O)(=O)C2CCOCC2)c1O)Nc1cccc(Cl)c1Cl	0.794 nM	290 ng·h/mL	37 ng·h/g	0.13	–
CN1CC[C@H](S(=O)(=O)c2c(Cl)ccc(NC(=O)Nc3cccc(Cl)c3Cl)c2O)C1	1.26 nM	577 ng·h/mL	164 ng·h/g	0.28	IC50 [5]: > 10000 nM; bioavailability [6]: 26%; half-life [7]: 1.9 h; Stability [8]: Stable; IC50 [9]: > 10000 nM; IC50 [10]: > 10000 nM; IC50 [11]: > 10000 nM; Fu [12]: 0.021%; IC50 [13]: > 10000 nM; clearance [14]: 15.4 mL/min/kg; Vd [15]: 1.72 L/kg; AUC/dose [16]: 271 ng·h/mL/mg/kg; Cmax [17]: 216 ng/mL
CC(C)N1CCN(S(=O)(=O)c2c(Cl)ccc(NC(=O)Nc3cccc(F)c3Cl)c2O)CC1	1.58 nM	52.9 ng·h/mL	99 ng·h/g	1.87	–
CN1CCN(S(=O)(=O)c2c(Cl)ccc(NC(=O)Nc3cccc(F)c3Cl)c2O)CC1	0.794 nM	176 ng·h/mL	83 ng·h/g	0.47	–
CN1CCC[C@H](S(=O)(=O)c2c(Cl)ccc(NC(=O)Nc3cccc(F)c3Cl)c2O)CC1	0.501 nM	463 ng·h/mL	99.1 ng·h/g	0.21	–
CC(C)S(=O)(=O)c1c(Cl)ccc(NC(=O)Nc2cccc(F)c2Cl)c1O	0.501 nM	198 ng·h/mL	95 ng·h/g	0.48	–
CC(C)(C)S(=O)(=O)c1c(Cl)ccc(NC(=O)Nc2cccc(F)c2Cl)c1O	0.501 nM	355 ng·h/mL	369 ng·h/g	1.04	–
CCN1CCN(S(=O)(=O)c2c(Cl)ccc(NC(=O)Nc3cccc(F)c3Cl)c2O)CC1	1 nM	189 ng·h/mL	128 ng·h/g	0.67	–
CN1CCC2(CC1)CC(S(=O)(=O)c1c(Cl)ccc(NC(=O)Nc3cccc(F)c3Cl)c1O)C2	2 nM	1390 ng·h/mL	111 ng·h/g	0.08	–
C[C@@H]1CN(S(=O)(=O)c2c(Cl)ccc(NC(=O)Nc3cccc(Cl)c3Cl)c2O)C[C@H](C)O1	10 nM	519 ng·h/mL	73 ng·h/g	0.14	–
O=C(Nc1ccc(Cl)c(S(=O)(=O)C2CCOC2)c1O)Nc1cccc(Cl)c1Cl (centres undefined)	0.501 nM	284 ng·h/mL	59 ng·h/g	0.21	–
O=C(Nc1ccc(Cl)c(C(=O)N2CCCC2)c1O)Nc1cccc(F)c1Cl	1 nM	–	–	–	AUC [18]: BLD; AUC ([3]; BLD = below limit of detection): BLD; Ratio [4]: BLD
O=C(Nc1ccc(Cl)c(C(=O)N2CCCCC2)c1O)Nc1cccc(F)c1Cl	0.501 nM	–	–	–	AUC [18]: BLD; AUC ([3]; BLD = below limit of detection): BLD; Ratio [4]: BLD
CN1CC2(CC(S(=O)(=O)c3c(Cl)ccc(NC(=O)Nc4cccc(F)c4Cl)c3O)C2)C1	0.398 nM	1050 ng·h/mL	22.9 ng·h/g	0.02	–
C[C@@H]1CN(S(=O)(=O)c2c(Cl)ccc(NC(=O)Nc3cccc(F)c3Cl)c2O)C[C@H](C)O1	3.98 nM	279 ng·h/mL	96 ng·h/g	0.35	–
CN1CC[C@H](S(=O)(=O)c2c(Cl)ccc(NC(=O)Nc3cccc(F)c3Cl)c2O)C1	0.501 nM	432 ng·h/mL	136 ng·h/g	0.32	–
O=C(Nc1ccc(Cl)c(S(=O)(=O)C2CCNCC2)c1O)Nc1cccc(Cl)c1Cl	2 nM	904 ng·h/mL	29.8 ng·h/g	0.03	–
O=C(Nc1ccc(Cl)c(S(=O)(=O)C2CCC2)c1O)Nc1cccc(F)c1Cl	0.316 nM	103 ng·h/mL	28.4 ng·h/g	0.28	–
O=C(Nc1ccc(Cl)c(S(=O)(=O)C2CCCC2)c1O)Nc1cccc(F)c1Cl	0.316 nM	2.98 ng·h/mL	1.26 ng·h/g	0.42	–
CN1CCC2(CCC(S(=O)(=O)c3c(Cl)ccc(NC(=O)Nc4cccc(F)c4Cl)c3O)CC2)CC1	0.398 nM	1480 ng·h/mL	69.3 ng·h/g	0.05	–
CCS(=O)(=O)c1c(Cl)ccc(NC(=O)Nc2cccc(Cl)c2Cl)c1O	0.501 nM	256 ng·h/mL	73.9 ng·h/g	0.29	–
CN1CCN(S(=O)(=O)c2c(Cl)ccc(NC(=O)Nc3cccc(Cl)c3Cl)c2O)CC1	0.794 nM	303 ng·h/mL	151 ng·h/g	0.5	–
O=C(Nc1ccc(Cl)c(S(=O)(=O)C2CCCCC2)c1O)Nc1cccc(F)c1Cl	0.316 nM	–	–	–	AUC [18]: BLD; AUC ([3]; BLD = below limit of detection): BLD; Ratio [4]: BLD
CC(C)S(=O)(=O)c1c(Cl)ccc(NC(=O)Nc2cccc(Cl)c2Cl)c1O	0.631 nM	290 ng·h/mL	180 ng·h/g	0.62	–
CCN1CCC(S(=O)(=O)c2c(Cl)ccc(NC(=O)Nc3cccc(F)c3Cl)c2O)CC1	1.26 nM	684 ng·h/mL	244 ng·h/g	–	IC50 [5]: > 10000 nM; bioavailability [6]: 41%; half-life [7]: 2.3 h; IC50 [9]: > 10000 nM; IC50 [10]: > 10000 nM; IC50 [11]: > 10000 nM; Fu [12]: 0.036%; IC50 [13]: > 10000 nM; clearance [14]: 30.8 mL/min/kg; Vd [15]: 2.82 L/kg; AUC/dose [16]: 212 ng·h/mL/mg/kg; Cmax [17]: 125 ng/mL

— ChEMBL document CHEMBL3817840, “Discovery of CNS Penetrant CXCR2 Antagonists for the Potential Treatment of CNS Demyelinating Disorders” (ACS Med Chem Lett, 2016)
